Data from patent publication US10167293B2, “[8-(phenylsulfonyl)-3,8-diazabicyclo[3.2.1]oct-3-yl](1H-1,2,3-triazol-4-yl)methanones” (BAYER PHARMA AKTIENGESELLSCHAFT, priority 2016, dated 2019).

Assays:
recombinant human AKR1C3 = recombinant human AKR1C3 (Homo sapiens (Human), UniProt P42330); test: AKR1C3-inhibitory activity assay (Coumberone to Coumberol fluorescence); format: biochemical; conditions: recombinant human AKR1C3, 15 min pre-incubation, 10 μM NADPH, 0.3 μM Coumberone
Method in brief: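 The enzyme was E. coli-expressed, GST-cleaved AKR1C3 (~1 nM), preincubated 15 min with compound in 50 mM potassium phosphate pH 7, 1 mM DTT, 0.01% BSA. NADPH-dependent reduction of Coumberone (0.3 μM final) with 10 μM NADPH final ran typically 90 min at 22 °C in the linear range. After an EM-1404 stop, Coumberol fluorescence (ex 380/em 520 nm) was normalized to no-inhibitor and no-enzyme controls.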

human primary adipocytes = test: Inhibition of testosterone formation from androstenedione in human primary adipocytes; format: cell-based; conditions: 1 μM androstenedione, 1 μM or 10 μM compound, 48 h, donors with BMI 26 and 30
Method: Cat# SA-1012-3 12 well Platte). Adipocytes were incubated in Adipocyte Basal Medium (Fa. ZenBio, Cat# BM-1)+1% FCS+2.5 μg/ml Amphotericin B (Fa. […] Androstenedione served as a substrate for the formation into testosterone. After the incubation adipocytes were collected and testosterone and androstenedione concentrations were determined by LC/MS at the “Bioanalytical Service and research provider Pharm-Analyt”. Inhibition of the conversion of androstenedione to testosterone by compound 76 is determined as Testosterone/Androstenedione ratio [%]. […] FIG. 1: […] The testosterone/androstenedione ratio [%] is shown.

endometriotic lesions = test: Callithrix jacchus endometriosis model; format: in vivo; conditions: 5 mg/kg orally once per day, 6 weeks
Method: The in vivo efficacy of compound 76 was tested in a non-human primate endometriosis model in marmoset monkeys.
Marmoset monkeys (Callithrix jacchus) are non-menstruating species in which endometriosis was induced by injection of endometrial tissue into the peritoneal cavity (Einspanier, Lieder et al, 2006). 6-12 year old female common marmosets with established endometriosis were employed (body weight between 358 g and 520 g) and distributed into 2 groups, with a size of n=5 animals per group. Prior to the actual start of the treatment, the animals were subjected to a laparotomy and examined for the presence of endometriotic lesions on the bladder, the uterus and the ovaries to measure each lesion's area. The randomization of animals into the two treatment groups was performed with respect to the initial lesion status at the first laparotomy. The endometriosis severity based on total lesion area per animal was distributed similarly across the groups.
For both the treatment group (5 mg/kg of compound 76) and vehicle treated group, the sum of total lesion area/size [cm^2] per animal, with respect to lesion area and lesion number, was determined and defined as pre-treatment status. 6 weeks later the treatment was started. The test compounds were administered orally once per day in capsules (PC Caps® capsules, Capsugel). To adapt for the intended dose, a trituration of the active compound with lactose was prepared and the exact dose was filled into the individual capsules. Each capsule was separately coated with salvia resistant coating (Eudragit EPO; Evonik). After the end of a 6 weeks treatment period, a second laparotomy was carried out and the number and size of the lesions on uterus, ovaries and bladder was determined with respect to total lesion size/area and defined as post-treatment status.

recombinant human AKR1C3, sequence (P42330 whole entry): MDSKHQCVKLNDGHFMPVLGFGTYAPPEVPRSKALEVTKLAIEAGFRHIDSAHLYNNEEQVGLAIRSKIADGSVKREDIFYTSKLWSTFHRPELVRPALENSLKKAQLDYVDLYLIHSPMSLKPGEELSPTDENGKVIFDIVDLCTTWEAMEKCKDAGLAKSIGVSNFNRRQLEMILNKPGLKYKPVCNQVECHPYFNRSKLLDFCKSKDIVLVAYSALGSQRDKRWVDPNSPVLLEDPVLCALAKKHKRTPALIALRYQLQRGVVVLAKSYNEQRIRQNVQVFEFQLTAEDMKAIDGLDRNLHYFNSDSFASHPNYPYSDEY

Compound: O=C(c1cnn[nH]1)N1CC2CCC(C1)N2S(=O)(=O)c1cc(F)cc(F)c1 [Example 75, sodium 5-({8-[(3,5-difluorophenyl)sulfonyl]-3,8-diazabicyclo[3.2.1]oct-3-yl}carbonyl)-1,2,3-triazol-1-ide]
- IC50 (recombinant human AKR1C3): 0.7 nM

Compound: O=C(c1cnn[n-]1)N1CC2CCC(C1)N2S(=O)(=O)c1cccc(F)c1.[Na+] [Example 76, sodium 5-({8-[(3-fluorophenyl)sulfonyl]-3,8-diazabicyclo[3.2.1]oct-3-yl}carbonyl)-1,2,3-triazol-1-ide]
- formation of testosterone from androstenedione (Testosterone/Androstenedione ratio) (human primary adipocytes): inhibited
- IC50 (recombinant human AKR1C3): 1.1 nM
- mean reduction of the total lesion size compared to baseline (endometriotic lesions; n=5): 68.9%
- ratio of total lesion size/area post- versus pre-treatment (endometriotic lesions; all treated animals): below 1
- total lesion size post-treatment versus pre-treatment (endometriotic lesions; marmosets with established endometriosis): strongly reduced
